From PubChem BioAssay (NCI)
Several values for one entry are separate records, joined by “and”; a condition that tells them apart may be missing. Equal values may be shown once.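 Cultured in 96-well plates, cells were exposed to test compound for 48 hours across five concentrations. The concentration for 50% growth inhibition is given as GI50. At the TGI there is no net growth.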

Experiments:
Assay in all cases: DTP human tumour cell line panel, 48 h
[1] = system: OVCAR-4 ovarian
[2] = system: NCI/ADR-RES ovarian
[3] = system: UO-31 renal
[4] = system: CCRF-CEM leukemia
[5] = system: OVCAR-8 ovarian
[6] = system: U251 CNS
[7] = system: K-562 leukemia
[8] = system: SNB-75 CNS
[9] = system: RXF 393 renal
[10] = system: HS 578T breast

SMILES	GI50 [1]	TGI [1]	GI50 [2]	TGI [2]	GI50 [3]	TGI [3]	GI50 [4]	TGI [4] [µM]	GI50 [5]	TGI [5]	GI50 [6]	TGI [6]	TGI [7]	TGI [8] [µM]	TGI [9] [µM]	GI50 [7] [µM]	GI50 [10] [µM]	TGI [10] [µM]	GI50 [9] [µM]	GI50 [8] [µM]
CC(C)c1cc(CNc2nc(Nc3cc(C4CC4)[nH]n3)cc(N3CCN(C)CC3)n2)on1	2.14 µM and 0.731 µM	> 10 µM and 4.57 µM	> 10 µM and 6.84 µM	> 10 µM and 25.4 µM	2 µM and 0.688 µM	> 10 µM and 5.9 µM	4.62 µM and 1.02 µM	> 100	3.27 µM and 0.42 µM	> 10 µM and 14.8 µM	3.49 µM and 0.408 µM	> 10 µM and 10.3 µM	> 10 µM and 14.5 µM	–	–	–	–	–	–	–
CCOC(=O)C1=C(NC(C)(C)C)OCC1=O	–	> 100 µM	–	–	–	> 100 µM	–	–	–	> 100 µM	–	> 100 µM	> 100 µM	> 100	–	–	–	–	–	–
Fc1ccc(F)c(C2SCc3nc4ccccc4n32)c1 (stereo unspecified)	–	> 100 µM	–	–	–	> 100 µM	–	> 100	–	> 100 µM	–	> 100 µM	> 100 µM	> 100	> 100	–	–	–	–	–
C[C@H]1COC2(c3ccccc3)CCC(=O)N12 (stereo partly specified)	–	> 100 µM	–	–	–	–	–	> 100	–	> 100 µM	–	> 100 µM	> 100 µM	> 100	> 100	–	–	–	–	–
COc1ccc(OC)c(-c2cc(-c3ccccc3)nn2-c2ccc(S(N)(=O)=O)cc2)c1	–	–	16.2 µM	31.8 µM	17.8 µM	50.4 µM	4.17 µM	> 100	10.2 µM	27 µM	–	–	6.38 µM	–	–	2.68	18.9	59.1	–	–
CCCCSCc1nc2nc(Cl)c(Cl)nc2[nH]1	–	> 100 µM	–	90.8 µM	–	–	–	63.6	–	> 100 µM	–	55.6 µM	99.5 µM	57.5	68.8	–	–	> 100	–	–
CCOC(=O)c1cc2cc(NC(=O)c3cc4cc([N+](=O)[O-])ccc4n3C)ccc2n1C	–	–	16.8 µM	45.3 µM	> 100 µM	> 100 µM	7.94 µM	> 100	49.5 µM	> 100 µM	14.1 µM	30.9 µM	> 100 µM	–	> 100	59.1	97.5	> 100	41	–
CC1=Nc2c([nH]c(=S)[nH]c2=O)NC(c2ccc(Cl)c(Cl)c2)C1 (stereo unspecified)	–	57.9 µM	–	–	–	89.6 µM	–	> 100	–	38.2 µM	–	31.1 µM	> 100 µM	> 100	38.2	–	–	–	–	–
COc1cc(OC)c(OC)cc1/C=C1\C=Cc2ccccc21	–	–	–	> 100 µM	–	64.2 µM	–	> 100	–	> 100 µM	–	> 100 µM	> 100 µM	–	49.7	–	–	96.2	–	–
COc1ccc(CCNCc2cccc(OC)c2OC)cc1OC	–	> 100 µM	–	–	–	> 100 µM	–	> 100	–	> 100 µM	–	–	> 100 µM	> 100	> 100	–	–	–	–	–
CN(/N=C/c1ccnc2ccccc12)c1ccc([N+](=O)[O-])cc1[N+](=O)[O-]	–	> 100 µM	–	–	–	> 100 µM	–	> 100	–	> 100 µM	–	> 100 µM	> 100 µM	40	> 100	–	–	–	–	–
O=C(NCCN1CCOCC1)Nc1ccc(-c2cc3c(Nc4ccc(Oc5cccc(C(F)(F)F)c5)c(Cl)c4)ncnc3s2)cc1	3.26 µM	11.5 µM	6.74 µM	19.9 µM	0.801 µM	1.75 µM	–	–	2.4 µM	9.88 µM	0.769 µM	2.43 µM	3.31 µM	1.9	2.55	0.706	1.16	3.84	0.653	0.642
COc1cc(-c2nn(C(=O)NS(=O)(=O)c3ccc(C)cc3)cc2-c2ccncc2)ccc1Cl	3.26 µM	27.3 µM	3.93 µM	80.6 µM	3.74 µM	16 µM	14.1 µM	> 100	2.02 µM	93.6 µM	6.16 µM	28.5 µM	–	7.52	12	–	7.38	> 100	2.67	1.69
O=C1OC(c2ccccc2)=N/C1=C\c1c(O)cc(O)cc1O	–	> 100 µM	–	–	–	> 100 µM	–	> 100	–	> 100 µM	–	> 100 µM	> 100 µM	> 100	> 100	–	–	–	–	–
CCOC(=O)c1c(C)n(CC(C)C)c2c1cc1oc(=O)c(=O)n3cnc2c13	17.4 µM	> 50 µM	11.6 µM	38 µM	20.7 µM	> 50 µM	–	–	12.5 µM	36.7 µM	10 µM	24.1 µM	> 50 µM	> 50	49.7	16.1	11.8	38.5	12.9	12.5
O=C(O)C(Br)C(Br)c1ccccc1[N+](=O)[O-] (stereo unspecified)	–	> 100 µM	–	> 100 µM	–	94.9 µM	–	–	–	> 100 µM	–	> 100 µM	> 100 µM	> 100	> 100	–	–	> 100	–	–
CCN(CC)CCCCCOc1cc(O)c2c(=O)cc(-c3ccccc3)oc2c1	7.27 µM	20.5 µM	3.06 µM	11.6 µM	1.85 µM	3.64 µM	–	–	11.5 µM	25.5 µM	3.16 µM	11.8 µM	3.56 µM	25.6	3.37	1.86	15.6	42.7	1.6	13
COc1ccc(/C(Cl)=C(\C=O)c2ccc(Br)cc2)cc1OC	–	> 100 µM	–	–	–	> 100 µM	–	–	–	> 100 µM	–	> 100 µM	> 100 µM	30	> 100	–	–	–	–	–
CC(C)CC(CNC(Cc1ccc(Cl)cc1)C(N)=O)NC(=O)C(Cc1cnc[nH]1)NC(=O)CNC(=O)C(NC(=O)C(C)NC(=O)C(Cc1c[nH]c2ccccc12)NC(=O)C(CCC(=O)O)NC(=O)C(N)Cc1ccccc1)C(C)C (stereo unspecified)	–	> 133 µM	–	–	–	> 133 µM	–	> 133	–	> 133 µM	–	> 133 µM	> 133 µM	> 133	> 133	–	–	–	–	–
